Reference: US20260258064A1 (SIRONAX LTD., priority 2023, published 2026)

The compounds below were run against T1, SARM1 (50-724) (Homo sapiens, UniProt Q6SZW1) (assay: SARM1 (50-724) enzymatic assay (LC-MS/MS)). Details: Purified SARM1 (50-724) 2 nM, NMN as activator, NAD+ as substrate, 1 h at room temperature, read-out: IC50 (SARM1 inhibitory activity).
T1 construct: Purified SARM1 (50-724) with a final concentration of 2 nM was pre-incubated with a test compound
T1 sequence (Q6SZW1 50-724): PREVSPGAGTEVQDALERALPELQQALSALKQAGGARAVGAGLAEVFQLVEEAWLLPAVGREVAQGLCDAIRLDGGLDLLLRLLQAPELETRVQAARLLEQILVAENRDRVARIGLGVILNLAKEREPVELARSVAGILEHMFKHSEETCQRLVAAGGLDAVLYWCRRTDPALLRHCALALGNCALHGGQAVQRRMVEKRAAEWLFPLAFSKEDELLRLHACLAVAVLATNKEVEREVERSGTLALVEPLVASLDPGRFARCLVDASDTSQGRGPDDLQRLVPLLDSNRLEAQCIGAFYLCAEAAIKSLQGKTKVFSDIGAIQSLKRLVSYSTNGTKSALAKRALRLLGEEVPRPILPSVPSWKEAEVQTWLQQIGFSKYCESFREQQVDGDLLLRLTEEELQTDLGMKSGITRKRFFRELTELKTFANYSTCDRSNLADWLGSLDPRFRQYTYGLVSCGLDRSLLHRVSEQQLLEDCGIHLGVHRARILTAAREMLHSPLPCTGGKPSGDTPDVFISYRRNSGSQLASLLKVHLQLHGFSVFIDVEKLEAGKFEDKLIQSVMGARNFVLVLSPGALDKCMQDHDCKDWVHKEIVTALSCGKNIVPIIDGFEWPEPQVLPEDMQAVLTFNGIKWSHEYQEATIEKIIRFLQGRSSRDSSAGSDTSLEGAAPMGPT
Assay type: biochemical
Description: An enzymatic assay was performed in a 384-well plate using Dulbecco's phosphate-buffered saline (PBS) as the reaction buffer. Purified SARM1 (50-724) with a final concentration of 2 nM was pre-incubated with a test compound at […] final assay concentration for 15 min at room temperature. The reaction was initiated by adding a mixture of […] nicotinamide mononucleotide (NMN) as activator and […] NAD^+ as substrate. After 1 h of incubation at room temperature, the reaction was terminated with 10 times volume of 70% acetonitrile, and then centrifuged at 3800 rpm for 10 min. The samples were analyzed using LC-MS/MS after diluted to a proper concentration by 10 mM ammonium acetate (pH 9.75).
In Table 2, activity is provided as follows: A: IC50≤100 nM; B: 100 nM<IC50≤500 nM; C: 500 nM<IC50≤1000 nM; D: IC50>1000 nM.

Compound | IC50
CNC(=O)CCc1nnc(-c2nc3cc(C(F)(F)F)ccc3[nH]2)n1-c1cccc(Cl)c1Cl [Compound 156, 3-(4-(2,3-dichlorophenyl)-5-(5-(trifluoromethyl)-1H-benzo[d]imidazol-2-yl)-4H-1,2,4-triazol-3-yl)-N-methylpropanamide] | ≤ 0.1 µM
FC1(F)CN(Cc2nnc(-c3nc4cc(C(F)(F)F)ccc4[nH]3)n2-c2cccc(Cl)c2Cl)C1 [Compound 157, 2-(4-(2,3-dichlorophenyl)-5-((3,3-difluoroazetidin-1-yl)methyl)-4H-1,2,4-triazol-3-yl)-5-(trifluoromethyl)-1H-benzo[d]imidazole] | ≤ 0.1 µM
CC(=O)c1ccc2[nH]c(-c3nncn3-c3ccc(F)c(F)c3Cl)nc2c1 [Compound 158, 1-(2-(4-(2-chloro-3,4-difluorophenyl)-4H-1,2,4-triazol-3-yl)-1H-benzo[d]imidazol-5-yl)ethan-1-one] | ≤ 0.1 µM
N#Cc1cccc(-n2cnnc2-c2nc3cc(C(F)(F)F)ccc3[nH]2)c1Cl [Compound 159, 2-chloro-3-(3-(5-(trifluoromethyl)-1H-benzo[d]imidazol-2-yl)-4H-1,2,4-triazol-4-yl)benzonitrile] | ≤ 0.1 µM
FC(F)(F)Oc1ccccc1-n1cnnc1-c1nc2cc(C(F)(F)F)ccc2[nH]1 [Compound 160] | ≤ 0.1 µM
O=c1cc(-n2cnnc2-c2nc3cc(C(F)(F)F)ccc3[nH]2)c(Cl)c[nH]1 [Compound 163, 5-Chloro-4-(3-(5-(trifluoromethyl)-1H-benzo[d]imidazol-2-yl)-4H-1,2,4-triazol-4-yl)pyridin-2(1H)-one] | ≤ 0.1 µM
Cc1c(Cl)ccc2[nH]c(-c3nncn3-c3ccc(F)c(F)c3Cl)nc12 [Compound 164, 5-chloro-2-(4-(2-chloro-3,4-difluorophenyl)-4H-1,2,4-triazol-3-yl)-4-methyl-1H-benzo[d]imidazole] | ≤ 0.1 µM
CN1CCC(C)(c2ccc3[nH]c(-c4nncn4-c4ccc(F)c(F)c4Cl)nc3c2)C1=O (stereo not drawn) [Compound 165, 3-(2-(4-(2-chloro-3,4-difluorophenyl)-4H-1,2,4-triazol-3-yl)-1H-benzo[d]imidazol-5-yl)-1,3-dimethylpyrrolidin-2-one] | 0.1 to 0.5 µM
FC(F)(F)c1ccc2[nH]c(-c3nncn3-c3c(Cl)cccc3-c3ccn[nH]3)nc2c1 [Compound 168, 2-(4-(2-chloro-6-(1H-pyrazol-5-yl)phenyl)-4H-1,2,4-triazol-3-yl)-5-(trifluoromethyl)-1H-benzo[d]imidazole] | 0.1 to 0.5 µM
COc1ncc(Cl)c(-n2cnnc2-c2nc3cc(C(F)(F)F)ccc3[nH]2)n1 [Compound 169, 2-(4-(5-chloro-2-methoxypyrimidin-4-yl)-4H-1,2,4-triazol-3-yl)-5-(trifluoromethyl)-1H-benzo[d]imidazole] | > 1 µM
Fc1ccc(-n2cnnc2-c2nc3cc(C(F)(F)F)cnc3[nH]2)c(Cl)c1F [Compound 170, 2-(4-(2-chloro-3,4-difluorophenyl)-4H-1,2,4-triazol-3-yl)-6-(trifluoromethyl)-3H-imidazo[4,5-b]pyridine] | ≤ 0.1 µM
NC(=O)C1(c2ccc3[nH]c(-c4nncn4-c4ccc(F)c(F)c4Cl)nc3c2)CC1 [Compound 171, 1-(2-(4-(2-chloro-3,4-difluorophenyl)-4H-1,2,4-triazol-3-yl)-1H-benzo[d]imidazol-5-yl)cyclopropane-1-carboxamide] | ≤ 0.1 µM
CCN(C)C(=O)c1ccc2[nH]c(-c3nncn3-c3ccc(F)c(F)c3Cl)nc2c1 [Compound 172, 2-(4-(2-chloro-3,4-difluorophenyl)-4H-1,2,4-triazol-3-yl)-N-ethyl-N-methyl-1H-benzo[d]imidazole-5-carboxamide] | > 1 µM
Cn1cc(Cl)c(-n2cnnc2-c2nc3cc(C(F)(F)F)ccc3[nH]2)cc1=O [Compound 173, 5-chloro-1-methyl-4-(3-(5-(trifluoromethyl)-1H-benzo[d]imidazol-2-yl)-4H-1,2,4-triazol-4-yl)pyridin-2(1H)-one] | 0.1 to 0.5 µM
NC(=O)c1cc(Cl)c(Cl)c(-n2cnnc2-c2nc3cc(C(F)(F)F)ccc3[nH]2)c1 [Compound 174, 3,4-dichloro-5-(3-(5-(trifluoromethyl)-1H-benzo[d]imidazol-2-yl)-4H-1,2,4-triazol-4-yl)benzamide] | ≤ 0.1 µM
CNc1ccc(Cl)c(-n2cnnc2-c2nc3cc(C(F)(F)F)ccc3[nH]2)n1 [Compound 175, 5-Chloro-N-methyl-6-(3-(5-(trifluoromethyl)-1H-benzo[d]imidazol-2-yl)-4H-1,2,4-triazol-4-yl)pyridin-2-amine] | ≤ 0.1 µM
Cc1cnc2[nH]c(-c3nncn3-c3cccc(F)c3Cl)nc2n1 [Compound 176, 2-(4-(2-chloro-3-fluorophenyl)-4H-1,2,4-triazol-3-yl)-6-methyl-1H-imidazo[4,5-b]pyrazine] | > 1 µM
FC(F)(F)Oc1cccnc1-n1cnnc1-c1nc2cc(C(F)(F)F)ccc2[nH]1 [Compound 177] | ≤ 0.1 µM
CC1(c2ccc3[nH]c(-c4nncn4-c4cccc(F)c4Cl)nc3c2)CS(=O)(=O)C1 [Compound 178, 3-(2-(4-(2-chloro-3-fluorophenyl)-4H-1,2,4-triazol-3-yl)-1H-benzo[d]imidazol-5-yl)-3-methylthietane 1,1-dioxide] | 0.1 to 0.5 µM
Cn1cc(-c2cccc(F)c2Cl)c(-c2nc3cc(CC(N)=O)ccc3[nH]2)cc1=O [Compound 179, 2-(2-(5-(2-chloro-3-fluorophenyl)-1-methyl-2-oxo-1,2-dihydropyridin-4-yl)-1H-benzo[d]imidazol-5-yl)acetamide] | 0.1 to 0.5 µM
N#CC1(c2ccc3[nH]c(-c4nncn4-c4cccc(F)c4Cl)nc3c2)COC1 [Compound 180, 3-(2-(4-(2-chloro-3-fluorophenyl)-4H-1,2,4-triazol-3-yl)-1H-benzo[d]imidazol-5-yl)oxetane-3-carbonitrile] | ≤ 0.1 µM
CS(=O)(=O)Cc1nnc(-c2nc3cc(C(F)(F)F)cc(F)c3[nH]2)n1-c1cccc(F)c1Cl [Compound 182, 2-(4-(2-Chloro-3-fluorophenyl)-5-((methylsulfonyl)methyl)-4H-1,2,4-triazol-3-yl)-7-fluoro-5-(trifluoromethyl)-1H-benzo[d]imidazole] | ≤ 0.1 µM
CS(=O)(=O)Cc1nnc(-c2nc3cc(C(F)(F)F)cc(F)c3[nH]2)n1-c1cccc(Cl)c1Cl [Compound 185, 2-(4-(2,3-dichlorophenyl)-5-((methylsulfonyl)methyl)-4H-1,2,4-triazol-3-yl)-4-fluoro-6-(trifluoromethyl)-1H-benzo[d]imidazole] | ≤ 0.1 µM
Cn1cc(-c2cccc(Cl)c2Cl)c(-c2nc3cc(Cl)c(Cl)cc3[nH]2)cc1=O [Compound 188, 4-(5,6-dichloro-1H-benzo[d]imidazol-2-yl)-5-(2,3-dichlorophenyl)-1-methylpyridin-2(1H)-one] | 0.1 to 0.5 µM
Fc1ccc(-n2cnnc2-c2nc3cc(C(F)(F)F)ccc3[nH]2)c(OC(F)(F)F)c1 [Compound 189, 2-(4-(4-fluoro-2-(trifluoromethoxy)phenyl)-4H-1,2,4-triazol-3-yl)-5-(trifluoromethyl)-1H-benzo[d]imidazole] | ≤ 0.1 µM
FC(F)(F)Oc1cnccc1-n1cnnc1-c1nc2cc(C(F)(F)F)ccc2[nH]1 [Compound 190] | ≤ 0.1 µM
CC1(c2ccc3[nH]c(-c4nncn4-c4cccc(F)c4Cl)nc3c2)CC(O)C1 (stereo not drawn) [Compound 191, 3-(2-(4-(2-chloro-3-fluorophenyl)-4H-1,2,4-triazol-3-yl)-1H-benzo[d]imidazol-5-yl)-3-methylcyclobutan-1-ol] | ≤ 0.1 µM
CS(=N)(=O)Cc1nnc(-c2nc3cc(Cl)cc(F)c3[nH]2)n1-c1cccc(F)c1Cl (stereo not drawn) [Compound 192, ((4-(2-chloro-3-fluorophenyl)-5-(5-chloro-7-fluoro-1H-benzo[d]imidazol-2-yl)-4H-1,2,4-triazol-3-yl)methyl)(imino)(methyl)-16-sulfanone] | ≤ 0.1 µM
CCS(=O)(=O)Cc1nnc(-c2nc3cc(Cl)cc(F)c3[nH]2)n1-c1cccc(F)c1Cl [Compound 193, 5-chloro-2-(4-(2-chloro-3-fluorophenyl)-5-((ethylsulfonyl)methyl)-4H-1,2,4-triazol-3-yl)-7-fluoro-1H-benzo[d]imidazole] | ≤ 0.1 µM
O=S(=O)(Cc1nnc(-c2nc3cc(Cl)cc(F)c3[nH]2)n1-c1cccc(F)c1Cl)C1CC1 [Compound 194, 5-chloro-2-(4-(2-chloro-3-fluorophenyl)-5-((cyclopropylsulfonyl)methyl)-4H-1,2,4-triazol-3-yl)-7-fluoro-1H-benzo[d]imidazole] | ≤ 0.1 µM
